33 molecules from US10703765B2 (priority 2014, dated 2020) can be followed below.

Where a name gives a salt, the structure may show the parent alone.

Chain of human σ1 receptor (Q99720 whole entry): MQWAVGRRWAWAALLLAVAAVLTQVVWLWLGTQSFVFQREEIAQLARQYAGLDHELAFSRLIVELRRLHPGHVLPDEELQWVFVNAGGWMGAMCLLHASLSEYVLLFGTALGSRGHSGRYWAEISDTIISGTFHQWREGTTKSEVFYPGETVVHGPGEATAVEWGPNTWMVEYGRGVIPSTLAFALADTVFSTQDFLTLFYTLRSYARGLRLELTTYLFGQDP

The first assay has as its target human σ1 receptor (Homo sapiens, UniProt Q99720). Nature of the assay: biochemical. The class given is binding.
Conditions: not given
More on the design: μ and σ1 dual binding: key to the marks not given beside the values.
Take `CC1OC2(CCN(CCc3ccccn3)CC2)CN(c2cnccc2C(F)(F)F)C1=O.Cl` (stereo not drawn) [Example 101, 2-methyl-9-(2-(pyridin-2-yl)ethyl)-4-(4-(trifluoromethyl)pyridin-3-yl)-1-oxa-4,9-diazaspiro[5.5]undecan-3-one hydrochloride]: the “μ and σ1 dual binding” value was “++”.
As for `COc1cccc(CCN2CCC3(CC2)CN(c2ccccc2)C(=O)C(C)O3)n1` (stereo not drawn) [Example 102, 9-(2-(6-methoxypyridin-2-yl)ethyl)-2-methyl-4-phenyl-1-oxa-4,9-diazaspiro[5.5]undecan-3-one hydrochloride], the Ki was < 500 nM.
On to `COc1ccc(CCN2CCC3(CC2)CN(c2ccccc2)C(=O)C(C)O3)cn1` (stereo not drawn) [Example 111, 9-(2-(6-methoxypyridin-3-yl)ethyl)-2-methyl-4-phenyl-1-oxa-4,9-diazaspiro[5.5]undecan-3-one], for which the “μ and σ1 dual binding” value was “++”.
Take `CC1OC2(CCN(CCc3cncc(C(F)(F)F)c3)CC2)CN(c2ccccc2)C1=O` (stereo not drawn) [Example 112, 2-methyl-4-phenyl-9-(2-(5-(trifluoromethyl)pyridin-3-yl)ethyl)-1-oxa-4,9-diazaspiro[5.5]undecan-3-one hydrochloride]: the Ki is < 500 nM.
On the same count and under the same terms, for `CC1OC2(CCN(CCc3cncc(F)c3)CC2)CN(c2ccccc2)C1=O` (stereo not drawn) [Example 114, 9-(2-(5-fluoropyridin-3-yl)ethyl)-2-methyl-4-phenyl-1-oxa-4,9-diazaspiro[5.5]undecan-3-one hydrochloride] the value was < 500 nM; for `CC1OC2(CCN(CCc3cncc(Cl)c3)CC2)CN(c2ccccc2)C1=O` (stereo not drawn) [Example 115, 9-(2-(5-chloropyridin-3-yl)ethyl)-2-methyl-4-phenyl-1-oxa-4,9-diazaspiro[5.5]undecan-3-one hydrochloride], < 500 nM.
On to `CC1OC2(CCN(CCc3cccc(C#N)n3)CC2)CN(c2ccccc2)C1=O.Cl` (stereo not drawn) [Example 123, 6-(2-(2-methyl-3-oxo-4-phenyl-1-oxa-4,9-diazaspiro[5.5]undecan-9-yl)ethyl)picolinonitrile hydrochloride], for which the “μ and σ1 dual binding” value is “++”.
For the molecule `C[C@@H]1OC2(CCN(CCc3ccccc3F)CC2)CN(c2cnccc2C(F)(F)F)C1=O.Cl` [Example 127a, (S)-9-(2-fluorophenethyl)-2-methyl-4-(4-(trifluoromethyl)pyridin-3-yl)-1-oxa-4,9-diazaspiro[5.5]undecan-3-one hydrochloride], the “μ and σ1 dual binding” value is listed as “++”.
As for `CC1OC2(CCN(CCC3CCOCC3)CC2)CN(c2ccccc2)C1=O.Cl` (stereo not drawn) [Example 131, 2-methyl-4-phenyl-9-(2-(tetrahydro-2H-pyran-4-yl)ethyl)-1-oxa-4,9-dizaspiro[5.5]undecan-3-one hydrochloride], the “μ and σ1 dual binding” value was “++”.

The same assay, now with this note: combined class from Ki-σ1 (human σ1 receptor, A1) and Ki-μ (human μ-opioid receptor, A2) radioligand binding.
Turning to `CC(C)OCCN1CCC2(CC1)CN(Cc1ccc(C(F)(F)F)cn1)C(=O)C(C)O2` (stereo not drawn) [Example 125, 9-(2-isopropoxyethyl)-2-methyl-4-((5-(trifluoromethyl)pyridin-2-yl)methyl)-1-oxa-4,9-diazaspiro[5.5]undecan-3-one], the “μ and σ1 dual binding” value was “++”.

The same assay, now with this note: read-out: μ and σ1 dual binding.
Consider `CC1OC2(CCN(CCC(=O)N(C)c3ccccc3)CC2)CN(c2ccccc2)C1=O` (stereo not drawn) [Example 100, N-methyl-3-(2-methyl-3-oxo-4-phenyl-1-oxa-4,9-diazaspiro[5.5]undecan-9-yl)-N-phenylpropanamide hydrochloride], for which the Ki is < 500 nM.
On the same count and under the same terms, under `O=C1COC2(CCN(CCc3cccc([N+](=O)[O-])c3)CC2)CN1Cc1ccc(C(F)(F)F)cn1` [Example 103, 9-(3-nitrophenethyl)-4-((5-(trifluoromethyl)pyridin-2-yl)methyl)-1-oxa-4,9-diazaspiro[5.5]undecan-3-one] stands > 500 nM.
For the molecule `Nc1cccc(CN2CC3(CCN(CCc4ccccc4)CC3)OCC2=O)n1` [Example 104, 4-((6-aminopyridin-2-yl)methyl)-9-phenethyl-1-oxa-4,9-diazaspiro[5.5]undecan-3-one], the Ki is > 500 nM.
Turning to `O=C1COC2(CCN(CCc3ccccc3)CC2)CN1Cc1ccc(Cl)cn1` [Example 105, 4-((5-chloropyridin-2-yl)methyl)-9-phenethyl-1-oxa-4,9-diazaspiro[5.5]undecan-3-one hydrochloride], the Ki was < 100 nM.
Still for that read-out and setting: for `CC(C)(C)OC(=O)Nc1nc(CCN2CCC3(CC2)CN(Cc2ccc(C(F)(F)F)cn2)C(=O)CO3)cs1` [Example 106, tert-butyl (4-(2-(3-oxo-4-((5-(trifluoromethyl)pyridin-2-yl)methyl)-1-oxa-4,9-diazaspiro[5.5]undecan-9-yl)ethyl)thiazol-2-yl)carbamate] the value was > 500 nM; for `CNS(=O)(=O)c1ccc(CCN2CCC3(CC2)CN(c2ccccc2)C(=O)C(C)O3)cc1` (stereo not drawn) [Example 107, N-methyl-4-(2-(2-methyl-3-oxo-4-phenyl-1-oxa-4,9-diazaspiro[5.5]undecan-9-yl)ethyl)benzenesulfonamide], > 500 nM; for `CC1OC2(CCN(CCc3ccc(S(N)(=O)=O)cc3)CC2)CN(c2ccccc2)C1=O` (stereo not drawn) [Example 108, 4-(2-(2-methyl-3-oxo-4-phenyl-1-oxa-4,9-diazaspiro[5.5]undecan-9-yl)ethyl)benzenesulfonamide], > 500 nM.
Still for that read-out and setting: under `COc1ccc(CN2CC3(CCN(CCc4ccccc4)CC3)OC3(CC3)C2=O)cc1` [Example 109, 12-(4-methoxybenzyl)-8-phenethyl-4-oxa-8,12-diazadispiro[2.1.5.3]tridecan-13-one hydrochloride] stands < 100 nM; under `CC1OC2(CCN(CCn3ccc([N+](=O)[O-])n3)CC2)CN(c2ccccc2)C1=O` (stereo not drawn) [Example 110, 2-methyl-9-(2-(3-nitro-1H-pyrazol-1-yl)ethyl)-4-phenyl-1-oxa-4,9-diazaspiro[5.5]undecan-3-one], > 500 nM; under `CC1OC2(CCN(CCc3ccc(Cl)nc3)CC2)CN(c2ccccc2)C1=O` (stereo not drawn) [Example 113, 9-(2-(6-chloropyridin-3-yl)ethyl)-2-methyl-4-phenyl-1-oxa-4,9-diazaspiro[5.5]undecan-3-one], > 500 nM.
`CC1OC2(CCN(CCn3nccc3NC(=O)OC(C)(C)C)CC2)CN(c2ccccc2)C1=O` (stereo not drawn) [Example 116, tert-butyl (1-(2-(2-methyl-3-oxo-4-phenyl-1-oxa-4,9-diazaspiro[5.5]undecan-9-yl)ethyl)-1H-pyrazol-5-yl)carbamate]: the Ki was > 500 nM.
On to `CC(C)C1OC2(CCN(CCc3csc(NC(=O)OC(C)(C)C)n3)CC2)CN(c2ccccc2F)C1=O` (stereo not drawn) [Example 117, tert-butyl (4-(2-(4-(2-fluorophenyl)-2-isopropyl-3-oxo-1-oxa-4,9-diazaspiro[5.5]undecan-9-yl)ethyl)thiazol-2-yl)carbamate], for which the Ki is > 500 nM.
On the same count and under the same terms, under `CC(C)(C)OC(=O)Nc1nc(CCN2CCC3(CC2)CN(c2ccccc2)C(=O)C2(CC2)O3)cs1` [Example 118, tert-butyl (4-(2-(13-oxo-12-phenyl-4-oxa-8,12-diazadispiro[2.1.5.3]tridecan-8-yl)ethyl)thiazol-2-yl)carbamate] stands > 500 nM; under `O=C1N(Cc2ccc(C(F)(F)F)cn2)CC2(CCN(CCc3cccc([N+](=O)[O-])c3)CC2)OC12CC2` [Example 119, 8-(3-nitrophenethyl)-12-{[5-(trifluoromethyl)pyridin-2-yl]methyl}-4-oxa-8,12-diazadispiro[2.1.5.3]tridecan-13-one], > 500 nM; under `CC(C)(C)OC(=O)Nc1nc(CCN2CCC3(CC2)CN(Cc2ccc(C(F)(F)F)cn2)C(=O)C2(CC2)O3)cs1` [Example 120, tert-butyl (4-(2-(13-oxo-12-{[5-(trifluoromethyl)pyridin-2-yl]methyl}-4-oxa-8,12-diazadispiro[2.1.5.3]tridecan-8-yl)ethyl)thiazol-2-yl)carbamate], > 500 nM.
The same measure, in the same setting: under `CC1OC2(CCN(CCc3csc(NC(=O)OC(C)(C)C)n3)CC2)CN(c2cnccc2C(F)(F)F)C1=O` (stereo not drawn) [Example 121, tert-butyl (4-(2-(2-methyl-3-oxo-4-(4-(trifluoromethyl)pyridin-3-yl)-1-oxa-4,9-diazaspiro[5.5]undecan-9-yl)ethyl)thiazol-2-yl)carbamate] stands > 500 nM.
Still for that read-out and setting: under `CC(C)OCCN1CCC2(CC1)CN(c1ccccc1)C(=O)C(C)O2` (stereo not drawn) [Example 122, 9-(2-isopropoxyethyl)-2-methyl-4-phenyl-1-oxa-4,9-diazaspiro[5.5]undecan-3-one] stands > 500 nM.
Consider `CC1OC2(CCN(CC(=O)N3CCOCC3)CC2)CN(Cc2ccc(C(F)(F)F)cn2)C1=O` (stereo not drawn) [Example 124, 2-methyl-9-(2-morpholino-2-oxoethyl)-4-((5-(trifluoromethyl)pyridin-2-yl)methyl)-1-oxa-4,9-diazaspiro[5.5]undecan-3-one hydrochloride], for which the Ki is > 500 nM.
As for `CC1OC2(CCN(CCc3ccccc3F)CC2)CN(c2cnccc2C(F)(F)F)C1=O` (stereo not drawn) [Example 126, 9-(2-fluorophenethyl)-2-methyl-4-(4-(trifluoromethyl)pyridin-3-yl)-1-oxa-4,9-diazaspiro[5.5]undecan-3-one hydrochloride], the Ki was < 100 nM.
For the molecule `C[C@H]1OC2(CCN(CCc3ccccc3F)CC2)CN(c2cnccc2C(F)(F)F)C1=O` [Example 127b, (R)-9-(2-fluorophenethyl)-2-methyl-4-(4-(trifluoromethyl)pyridin-3-yl)-1-oxa-4,9-diazaspiro[5.5]undecan-3-one hydrochloride], the Ki is < 100 nM.
For `CC1OC2(CCN(CC(=O)N3CCCCC3)CC2)CN(Cc2ccc(C(F)(F)F)cn2)C1=O` (stereo not drawn) [Example 128, 2-methyl-9-(2-oxo-2-(piperidin-1-yl)ethyl)-4-((5-(trifluoromethyl)pyridin-2-yl)methyl)-1-oxa-4,9-diazaspiro[5.5]undecan-3-one hydrochloride], the Ki is > 500 nM.
On the same count and under the same terms, for `CC1OC2(CCN(CC(=O)N3CCCCC3)CC2)CN(c2ccccc2)C1=O` (stereo not drawn) [Example 129, 2-methyl-9-(2-oxo-2-(piperidin-1-yl)ethyl)-4-phenyl-1-oxa-4,9-diazaspiro[5.5]undecan-3-one] the value was > 500 nM; for `CC1OC2(CCN(CCc3ccccc3F)CC2)CN(c2cccnc2C(F)(F)F)C1=O` (stereo not drawn) [Example 130, 9-(2-fluorophenethyl)-2-methyl-4-(2-(trifluoromethyl)pyridin-3-yl)-1-oxa-4,9-diazaspiro[5.5]undecan-3-one dihydrochloride], < 500 nM.
